# Data as given in patent publication US20220002226A1, “Amorphous Form of Chelating Agents and Process for Preparing them” (Hovione Scientia Limited, priority 2018, published 2022).
# Columns and labels:
# [1] = Solubility test according to European Pharmacopoeia (Ph. Eur. 5.11): increasing amounts of water added to 100 mg of powder; type: physicochemical; conditions: 22° C.; for 100 mg dissolved in stated volume of water (YES/No): 100 mg powder
# Experimental: Characters section in monographs. This was used in the tests below.
# Solubility was assessed using the European Pharmacopeia method referred to above where increasing amounts of water are added to 100 mg of powder until its complete dissolution (or otherwise).
# Characters section in monographs.
# [2] = cited from earlier work
# [3] = 0.1 ml water, Ph. Eur. class Very soluble
# [4] = 1.0 ml water, Ph. Eur. class Freely soluble
# [5] = 3.0 ml water, Ph. Eur. class Soluble
# [6] = 10.0 ml water, Ph. Eur. class Sparingly soluble
# [7] = 20.0 ml water, Ph. Eur. class Slightly soluble
# [8] = 30.0 ml water, Ph. Eur. class Very slightly soluble
# [9] = 40.0 ml water, Ph. Eur. class Insoluble
# [10] = 50.0 ml water, Ph. Eur. class printed Insoluble (Tables 2, 6), Very slightly soluble (Table 4)
# [11] = 60.0 ml water, Ph. Eur. class Insoluble
# [12] = 70.0 ml water, Ph. Eur. class Insoluble
# [13] = 80.0 ml water, Ph. Eur. class Insoluble
Compound,"100 mg dissolved in stated volume of water (YES/No) [1, 3]","100 mg dissolved in stated volume of water (YES/No) [1, 4]","100 mg dissolved in stated volume of water (YES/No) [1, 5]","100 mg dissolved in stated volume of water (YES/No) [1, 6]","100 mg dissolved in stated volume of water (YES/No) [1, 7]","100 mg dissolved in stated volume of water (YES/No) [1, 8]","100 mg dissolved in stated volume of water (YES/No) [1, 9]","100 mg dissolved in stated volume of water (YES/No) [1, 10]","100 mg dissolved in stated volume of water (YES/No) [1, 11]","100 mg dissolved in stated volume of water (YES/No) [1, 12]","100 mg dissolved in stated volume of water (YES/No) [1, 13]",solubility in water (prior-art statement) [2],"solubility compared with the corresponding crystalline form ([1]; Ph. Eur. solubility test, water)"
"O=C(O)CN(CCN(CC(=O)O)CC(=O)O)CCN(CC(=O)O)CC(=O)O [DTPA Crystalline pharma grade, diethylenetriaminepentaacetic acid]",No,No,No,No,No,No,No,No,No,No,YES,,
"O=C(O)CN(CCN(CC(=O)O)CC(=O)O)CCN(CC(=O)O)CC(=O)O [DTPA Crystalline Industrial grade, diethylenetriaminepentaacetic acid]",No,No,No,No,No,No,No,No,No,No,YES,,
"O=C(O)CN(CCN(CC(=O)O)CC(=O)O)CCN(CC(=O)O)CC(=O)O [DTPA, diethylenetriaminepentaacetic acid]",,,,,,,,,,,,soluble in water only at higher pH (around 8),
"O=C(O)CN(CCN(CC(=O)O)CC(=O)O)CCN(CC(=O)O)CC(=O)O [DTPA Amorphous pharma grade, diethylenetriaminepentaacetic acid]",No,No,No,No,No,YES,,,,,,,higher solubility
